Results published in patent US20130131161A1, “METHODS AND COMPOSITIONS FOR CARDIOVASCULAR DISEASES AND CONDITIONS” (priority 2009, published 2013).
Several values for one entry are separate records, joined by “and”; a condition that tells them apart may be missing. Equal values may be shown once.

Tested on: Human umbilical vein endothelial cells (HUVECs)
Assay: eNOS activity analysis: NO, ONOO− and NO/ONOO− release from HUVECs of 50 genotyped donors in response to LA-419 (Example 2)
Format: cell-based
Conditions: for Fold difference NO/ONOO− (mean ± sd) / Fold difference ONOO− (mean ± sd) / Fold difference NO (mean ± sd): Caucasian, (LA-419 5 μM)/(control); for % Change NO (mean ± sd) / % Change NO/ONOO− (mean ± sd) / % Change ONOO− (mean ± sd): LA-419 1 μM vs control
Description: Concurrent measurements of NO and ONOO^− were carried out with tandem electrochemical nanosensors combined into one working unit with a total diameter of 200-500 nm (FIG. 1). Their design was based on previously developed and well-characterized chemically modified carbon-fiber technology (Malinski and Taha, 1992; Lvovich and Scheeline, 1997). Each of the nanosensors was made by depositing a sensing material on the tip of a carbon fiber (length 4-5 μm, diameter 0.2-0.5 μm). The fibers were sealed with nonconductive epoxy and electrically connected to copper wires with conductive silver epoxy. A conductive film of polymeric nickel (II) tetrakis(3-methoxy-4-hydroxyphenyl)porphyrin for the NO-sensor and polymeric film of Mn (III) [2.2]paracyclophanylporphyrin was used for the ONOO^−-sensor.
A module of NO/ONOO^− nanosensors (diameter 1-2 μm) with a platinum wire (0.1 mm) counter electrode and saturated calomel reference electrode (SCE) were applied. Differential pulse voltammetry (DPV) and amperometry were performed with a computer-based Gamry VFP600 multichannel potentiostat. DPV was used to measure the basal NO and ONOO^− concentrations, and amperometry was used to measure changes in NO and ONOO^− concentrations from its basal level with time. The DPV current at the peak potential characteristic for NO oxidation (0.65 V) and ONOO^− reduction (−0.45 V) was directly proportional to the local concentrations of these compounds in the immediate vicinity of the sensor. Linear calibration curves (current vs. concentration) were constructed for each sensor from 10 nM to 3 μM before and after measurements with aliquots of NO and ONOO^− standard solutions, respectively. The detection limit of the sensors was 1.0 nM.
The quantification of each analyte (concentration in nM) was performed using a maximum current from amperograms and standard calibration curves. A reproducibility of measurements with nanosensors is relatively high (between 5-12%). […] The sensors were slowly raised 5±2 μm from the surface of a single endothelial cell. The eNOS agonist, calcium ionophore A23187 (CaI) as well as the different drugs were then added to the surrounding media at the cell surface with a nanoinjector that was also positioned by a computer controlled-micromanipulator.
This example describes the genotype-specific response of the three major eNOS variants to 1 μM and 5 μM concentrations of LA-419. The three major genetic polymorphisms studied were the Glu298Asp variant (E298D or 894G→T) in exon 7 of […], the −786T→C variant in the promoter region, and the intron 4 polymorphism (VNTR). All of these variants have possible effects on the cardiovascular system and endothelial dysfunction. For this study, human umbilical vein endothelial cells (HUVECs) from 50 donors between 18 and 32 years of age were used.
For the analysis several analysis techniques were employed. First, the effect of genotype on NO and ONOO^− release was explored within the different concentrations of LA-419 (control, 1 μM, 5 μM), calculated as the average peak release (nmols/L) of NO, ONOO^−, and NO/ONOO^−. The effect of genotype on the net increase in NO, ONOO^−, and NO/ONOO^− for LA-419 (1 μM and 5 μM) as compared to control was also measured. In addition, an analysis was done on the effect of genotype on the % change in NO, ONOO^−, and NO/ONOO^− production for LA-419 (1 μM and 5 μM), calculated as:
% Change=[(avg. LA-419−avg. control)/(avg. control)]*100
Finally, an evaluation was undertaken concerning the effect of genotype on the production of NO, ONOO^−, and NO/ONOO^− as the fold difference of control for LA-419 (1 μM and 5 μM), calculated as:
Fold Difference=(avg. LA-419)/(avg. control)
Within each calculation technique the results were compared for statistical significance using a non-parametric ANOVA Kruskal-Wallace test or a non-parametric Mann-Whitney U test. Statistical significance was set at a p-value <0.05 in a two-tailed distribution. […]

[1] = HUVEC donor Race Caucasian/Black

For `CC(=O)SC1COC2C(O[N+](=O)[O-])COC12` (stereo not drawn) [LA-419, S-(6-Nitro-oxi-hexahydro-furo[3,2-b]furan-3-1-il)thioacetate], the “Fold difference NO/ONOO− (mean ± sd)” value (G894T G/G, n=10) was 1.47 (0.12), the “Fold difference ONOO− (mean ± sd)” value (G894T G/G, n=10) was 0.81 (0.04) and the “Fold difference NO (mean ± sd)” value (G894T G/T & T/T, n=16) was 1.11 (0.05). The “Fold difference NO/ONOO− (mean ± sd)” value (G894T G/T & T/T, n=16) was 1.35 (0.10), the “Fold difference ONOO− (mean ± sd)” value (G894T G/T & T/T, n=16) was 0.83 (0.07) and the “Fold difference NO (mean ± sd)” value (G894T G/T, n=13) was 1.12 (0.05). The “Fold difference NO/ONOO− (mean ± sd)” value (G894T G/T, n=13) was 1.34 (0.09), the “Fold difference ONOO− (mean ± sd)” value (G894T G/T, n=13) was 0.83 (0.06) and the “Fold difference NO (mean ± sd)” value (G894T T/T, n=3) was 1.11 (0.07). For the same compound, the “Fold difference NO/ONOO− (mean ± sd)” value (G894T T/T, n=3) was 1.39 (0.17), the “Fold difference ONOO− (mean ± sd)” value (G894T T/T, n=3) was 0.80 (0.12) and the “Fold difference NO (mean ± sd)” value (Intron 4 b/a & a/a, n=6) was 1.16 (0.06). For the same compound, the “Fold difference NO/ONOO− (mean ± sd)” value (Intron 4 b/a & a/a, n=6) was 1.39 (0.11), the “Fold difference ONOO− (mean ± sd)” value (Intron 4 b/a & a/a, n=6) was 0.83 (0.05) and the “Fold difference NO (mean ± sd)” value (Intron 4 b/a, n=5) was 1.16 (0.06). The “Fold difference NO/ONOO− (mean ± sd)” value (Intron 4 b/a, n=5) was 1.39 (0.12), the “Fold difference ONOO− (mean ± sd)” value (Intron 4 b/a, n=5) was 0.83 (0.05) and the “Fold difference NO (mean ± sd)” value (Intron 4 b/b, n=18) was 1.13 (0.07). The “Fold difference NO/ONOO− (mean ± sd)” value (Intron 4 b/b, n=18) was 1.39 (0.13), the “Fold difference ONOO− (mean ± sd)” value (Intron 4 b/b, n=18) was 0.82 (0.06) and the “Fold difference NO (mean ± sd)” value (T-786C T/C & C/C, n=16) was 1.12 (0.06). For the same compound, the “Fold difference NO/ONOO− (mean ± sd)” value (T-786C T/C & C/C, n=16) was 1.36 (0.10), the “Fold difference ONOO− (mean ± sd)” value (T-786C T/C & C/C, n=16) was 0.82 (0.06) and the “Fold difference NO (mean ± sd)” value (T-786C T/C, n=15) was 1.13 (0.06). The “Fold difference NO/ONOO− (mean ± sd)” value (T-786C T/C, n=15) was 1.35 (0.09), the “Fold difference ONOO− (mean ± sd)” value (T-786C T/C, n=15) was 0.83 (0.04) and the “Fold difference NO (mean ± sd)” value (T-786C T/T, n=10) was 1.17 (0.08). The “Fold difference NO/ONOO− (mean ± sd)” value (T-786C T/T, n=10) was 1.49 (0.14) and 1.45 (0.14), the “Fold difference ONOO− (mean ± sd)” value (T-786C T/T, n=10) was 0.82 (0.07) and the “peak release of NO versus control” value (LA-419 1 μM (Table c1)) was “smaller increase”. The “ONOO− production versus control” value (LA-419 1 μM (Table c2)) was “no apparent decrease”, the “% Change NO (mean ± sd)” value [1] was 9.57 (6.43) % and the “% Change NO/ONOO− (mean ± sd)” value [1] was 3.77 (26.27) %. For the same compound, the “% Change ONOO− (mean ± sd)” value [1] was 9.37 (21.79) %, the “% Change NO (mean ± sd)” value (HUVEC donor Race Not Reported) was 14.50 (2.19) % and the “% Change NO/ONOO− (mean ± sd)” value (HUVEC donor Race Not Reported) was 37.24 (1.75) %. For the same compound, the “% Change ONOO− (mean ± sd)” value (HUVEC donor Race Not Reported) was −16.55 (2.66) %, the “% Change NO (mean ± sd)” value (HUVEC donor alpha) was −4.73 (18.81) % and the “% Change NO/ONOO− (mean ± sd)” value (HUVEC donor alpha) was −8.17 (36.37) %. For the same compound, the “% Change ONOO− (mean ± sd)” value (HUVEC donor alpha) was 16.25 (36.48) %, the “% Change NO (mean ± sd)” value (HUVEC donor beta) was 21.25 (25.58) % and the “% Change NO/ONOO− (mean ± sd)” value (HUVEC donor beta) was 61.80 (74.46) %. For the same compound, the “% Change ONOO− (mean ± sd)” value (HUVEC donor beta) was −18.41 (17.30) %, the “% Change NO (mean ± sd)” value (HUVEC donor delta) was 8.95 (0) % and the “% Change NO/ONOO− (mean ± sd)” value (HUVEC donor delta) was 33.68 (0) %. For the same compound, the “% Change ONOO− (mean ± sd)” value (HUVEC donor delta) was −18.50 (0) %, the “% Change NO (mean ± sd)” value (HUVEC donor gamma) was 11.74 (17.99) % and the “% Change NO/ONOO− (mean ± sd)” value (HUVEC donor gamma) was 26.85 (45.85) %. For the same compound, the “% Change ONOO− (mean ± sd)” value (HUVEC donor gamma) was −6.29 (19.74) %, the “% Change NO (mean ± sd)” value (HUVECs G894T variant G/G) was 7.77 (18.82) % and the “% Change NO/ONOO− (mean ± sd)” value (HUVECs G894T variant G/G) was 21.83 (51.78) %. For the same compound, the “% Change ONOO− (mean ± sd)” value (HUVECs G894T variant G/G) was −2.10 (27.33) %, the “% Change NO (mean ± sd)” value (HUVECs G894T variant G/T) was 20.99 (29.98) % and the “% Change NO/ONOO− (mean ± sd)” value (HUVECs G894T variant G/T) was 50.45 (77.28) %. For the same compound, the “% Change ONOO− (mean ± sd)” value (HUVECs G894T variant G/T) was −9.58 (26.95) %, the “% Change NO (mean ± sd)” value (HUVECs G894T variant T/T) was 8.69 (18.85) % and the “% Change NO/ONOO− (mean ± sd)” value (HUVECs G894T variant T/T) was 61.97 (81.82) %. For the same compound, the “% Change ONOO− (mean ± sd)” value (HUVECs G894T variant T/T) was −25.44 (21.34) %, the “% Change NO (mean ± sd)” value (HUVECs Intron 4 variant a/a) was −4.57 (24.67) % and the “% Change NO/ONOO− (mean ± sd)” value (HUVECs Intron 4 variant a/a) was −3.62 (44.56) %. The “% Change ONOO− (mean ± sd)” value (HUVECs Intron 4 variant a/a) was 9.62 (33.98) %, the “% Change NO (mean ± sd)” value (HUVECs Intron 4 variant b/a) was 20.51 (28.08) % and the “% Change NO/ONOO− (mean ± sd)” value (HUVECs Intron 4 variant b/a) was 42.92 (65.15) %. For the same compound, the “% Change ONOO− (mean ± sd)” value (HUVECs Intron 4 variant b/a) was −6.58 (30.92) %, the “% Change NO (mean ± sd)” value (HUVECs Intron 4 variant b/b) was 13.46 (23.13) % and the “% Change NO/ONOO− (mean ± sd)” value (HUVECs Intron 4 variant b/b) was 43.27 (71.09) %. The “% Change ONOO− (mean ± sd)” value (HUVECs Intron 4 variant b/b) was −10.24 (27.17) %, the “% Change NO (mean ± sd)” value (HUVECs Intron 4 variant c/c) was −26.76 (0) % and the “% Change NO/ONOO− (mean ± sd)” value (HUVECs Intron 4 variant c/c) was −26.15 (0) %. For the same compound, the “% Change ONOO− (mean ± sd)” value (HUVECs Intron 4 variant c/c) was −0.63 (0) %, the “% Change NO (mean ± sd)” value (HUVECs T-786C variant C/C) was 1.91 (11.63) % and the “% Change NO/ONOO− (mean ± sd)” value (HUVECs T-786C variant C/C) was 2.52 (35.64) %. The “% Change ONOO− (mean ± sd)” value (HUVECs T-786C variant C/C) was 11.13 (43.85) %, the “% Change NO (mean ± sd)” value (HUVECs T-786C variant T/C) was 17.70 (29.53) % and the “% Change NO/ONOO− (mean ± sd)” value (HUVECs T-786C variant T/C) was 52.82 (77.96) %. For the same compound, the “% Change ONOO− (mean ± sd)” value (HUVECs T-786C variant T/C) was −12.40 (28.22) %, the “% Change NO (mean ± sd)” value (HUVECs T-786C variant T/T) was 9.48 (17.79) % and the “% Change NO/ONOO− (mean ± sd)” value (HUVECs T-786C variant T/T) was 25.48 (51.97) %. The “% Change ONOO− (mean ± sd)” value (HUVECs T-786C variant T/T) was −5.17 (21.75) %, the “% Change Ratio, % Change NO/% Change ONOO− (mean ± sd)” value (LA-419 1 μM, HUVEC donor Race Asian) was −0.48 (0) and the “% Change Ratio, % Change NO/% Change ONOO− (mean ± sd)” value (LA-419 1 μM, HUVEC donor Race Black) was 2.81 (12.60). The “% Change Ratio, % Change NO/% Change ONOO− (mean ± sd)” value (LA-419 1 μM, HUVEC donor Race Not Reported) was −0.90 (0.28) and the “Net increase over control NO (mean ± sd)” value (LA-419 1 μM, HUVECs G894T + T-786C Combination of all genotypes other than G/G + T/T) was 38.70 (72.56) nmols/L.
